Measurements reported in patent publication US20100041089A1, “IMPROVED METHOD FOR DETECTING CHEMICAL […]” (priority 2006, published 2010).

Tested on: yeast genes (expressed mRNA)
Test: DNA chip measurement of expressed mRNA of yeast genes after culture with a toxic chemical substance
Format: cell-based, Saccharomyces cerevisiae S288C
Details: for level of expressed mRNA in the presence of chemical substance / level in the absence of chemical substance: cultured two hours with the chemical substance; for The level of expressed mRNA in the presence of chemical substance/The level of expressed mRNA in the absence of chemical substance: cultured two hours with substance
Method: Yeast (Saccharomyces cerevisiae S288C (a SUC2mal mel gap2 CUP1)) were cultured at 25° C. on YPD medium (yeast extract 1%, polypeptone 2%, glucose 2%). One of toxic chemical substances was added to the cell at logarithmic growth phase, and the cell was further cultured for two hours. Cell was cultured without any chemical substance in the same condition, and was used as a control. Concentrations of the chemical substances were defined to inhibit the growth of the yeast but not lead to death.
After the completion of cultivation, the culture was centrifuged to collect the cells. To the cells, sodium acetate buffer (50 mM sodium acetate, 10 mM EDTA, 1% SDS) was added, and the mixture was shaken at 65° C. for five minutes, followed by returning to room temperature, and obtaining the supernatant, which procedure was repeated two times. To the supernatant, ½ amount of a solution of phenol/chloroform (1:1) was added, and the mixture was centrifuged to give a supernatant, an equal amount of chloroform was added, and the mixture was centrifuged to give a supernatant. To the supernatant, an equal amount of isopropanol containing 0.3 M sodium acetate was added, and the mixture was allowed to stand at room temperature for 30 minutes, after which the mixture was centrifuged to give sediment of the whole RNAs. Seventy % ethanol was added to the sediment, and the mixture was again centrifuged to give sediment, which was then dried and dissolved in water. mRNA was isolated from the whole RNAs as followings. In view of the fact that a poly A chain is attached to the 3′ terminus of mRNA, a polynucleotide having a poly T structure which was immobilized on the surface of latex beads was used to trap the mRNA, and then the mRNA was washed and eluted with spine column (Oligotex-dT30<Super>mRNA Purification Kit, Takara). Reverse transcription of the mRNA was conducted with a reverse transcriptase (Super Script II Reverse Transcriptase; catalogue No. 18064-014, GibcoBRL) using fluorescence-labeled nucleotides to give cDNAs that were introduced with Cy3-dUTP or Cy5-dUTP during the reverse transcription.
The labeled cDNAs were dissolved in TE buffer (10 mM Tris-HCl/1 mM EDTA, pH 8.0), and the solution was dropped on the DNA chip containing the whole genes of yeast (DNA Chip Research Inc. Japan) so that the cDNAs were hybridized on the DNA chip at 65° C. for over 12 hours. The fluoresces intensity of the DNA chip was read with a scanner, and the ratio relative to the fluorescence intensity resulting from the absence of chemical substance was estimated as the following, which is shown in Tables 1 to 9.
In the Tables, “Intensity” indicated in the rightmost column is a value of the level of expressed mRNA of each gene in control cells as divided by the average level of the expressions of the whole genes. A gene of which mRNA level is lower in control, and is higher in cases of addition of chemical substance, is especially useful in the detection of toxic substances.
Here, when a ratio of an amount of mRNA expressed in the presence of the chemical substance to an amount of mRNA expressed in the absence of the chemical substance is two or more, then it is considered significant.

Cl[C@H]1[C@H](Cl)[C@@H](Cl)[C@@H](Cl)[C@H](Cl)[C@H]1Cl [(7), γ-Hexachlorocyclohexane]
level of expressed mRNA in the presence of chemical substance / level in the absence of chemical substance (yeast gene YNL058C): 0.7
level of expressed mRNA in the presence of chemical substance / level in the absence of chemical substance (yeast gene YNL063W): 1.4
The level of expressed mRNA in the presence of chemical substance/The level of expressed mRNA in the absence of chemical substance (yeast gene YNL074C): 1.1
The level of expressed mRNA in the presence of chemical substance/The level of expressed mRNA in the absence of chemical substance (yeast gene YNL092W): 1.6
The level of expressed mRNA in the presence of chemical substance/The level of expressed mRNA in the absence of chemical substance (yeast gene YNL115C): 2.4
The level of expressed mRNA in the presence of chemical substance/The level of expressed mRNA in the absence of chemical substance (yeast gene YNL156C): 1.9
level of expressed mRNA in the presence of chemical substance / level in the absence of chemical substance (yeast gene YNL176C): 0.7
level of expressed mRNA in the presence of chemical substance / level in the absence of chemical substance (yeast gene YNL194C): 1.5
level of expressed mRNA in the presence of chemical substance / level in the absence of chemical substance (yeast gene YNL200C): 1.2
The level of expressed mRNA in the presence of chemical substance/The level of expressed mRNA in the absence of chemical substance (yeast gene YNL234W): 1.2
level of expressed mRNA in the presence of chemical substance / level in the absence of chemical substance (yeast gene YNL253W): 1.3
level of expressed mRNA in the presence of chemical substance / level in the absence of chemical substance (yeast gene YNL276C): 0.9
The level of expressed mRNA in the presence of chemical substance/The level of expressed mRNA in the absence of chemical substance (yeast gene YNL281W): 1.2
The level of expressed mRNA in the presence of chemical substance/The level of expressed mRNA in the absence of chemical substance (yeast gene YNL305C): 1.7
level of expressed mRNA in the presence of chemical substance / level in the absence of chemical substance (yeast gene YNR051C): 1.3
The level of expressed mRNA in the presence of chemical substance/The level of expressed mRNA in the absence of chemical substance (yeast gene YNR068C): 1.8
level of expressed mRNA in the presence of chemical substance / level in the absence of chemical substance (yeast gene YOL026C): 1.8
The level of expressed mRNA in the presence of chemical substance/The level of expressed mRNA in the absence of chemical substance (yeast gene YOL032W): 1.4
The level of expressed mRNA in the presence of chemical substance/The level of expressed mRNA in the absence of chemical substance (yeast gene YOL036W): 1.0
The level of expressed mRNA in the presence of chemical substance/The level of expressed mRNA in the absence of chemical substance (yeast gene YOL047C): 1.3
The level of expressed mRNA in the presence of chemical substance/The level of expressed mRNA in the absence of chemical substance (yeast gene YOL071W): 2.0
The level of expressed mRNA in the presence of chemical substance/The level of expressed mRNA in the absence of chemical substance (yeast gene YOL082W): 2.5
The level of expressed mRNA in the presence of chemical substance/The level of expressed mRNA in the absence of chemical substance (yeast gene YOL083W): 3.1
The level of expressed mRNA in the presence of chemical substance/The level of expressed mRNA in the absence of chemical substance (yeast gene YOL117W): 1.6
The level of expressed mRNA in the presence of chemical substance/The level of expressed mRNA in the absence of chemical substance (yeast gene YOL131W): 1.3
The level of expressed mRNA in the presence of chemical substance/The level of expressed mRNA in the absence of chemical substance (yeast gene YOL150C): 2.4
The level of expressed mRNA in the presence of chemical substance/The level of expressed mRNA in the absence of chemical substance (yeast gene YOL162W): 2.0
The level of expressed mRNA in the presence of chemical substance/The level of expressed mRNA in the absence of chemical substance (yeast gene YOR019W): 2.8
level of expressed mRNA in the presence of chemical substance / level in the absence of chemical substance (yeast gene YOR022C): 1.6
level of expressed mRNA in the presence of chemical substance / level in the absence of chemical substance (yeast gene YOR087W): 0.9
level of expressed mRNA in the presence of chemical substance / level in the absence of chemical substance (yeast gene YOR138C): 1.1
The level of expressed mRNA in the presence of chemical substance/The level of expressed mRNA in the absence of chemical substance (yeast gene YOR197W): 0.9
level of expressed mRNA in the presence of chemical substance / level in the absence of chemical substance (yeast gene YOR253W): 1.3
level of expressed mRNA in the presence of chemical substance / level in the absence of chemical substance (yeast gene YOR267C): 0.9
level of expressed mRNA in the presence of chemical substance / level in the absence of chemical substance (yeast gene YOR325W): 1.2
level of expressed mRNA in the presence of chemical substance / level in the absence of chemical substance (yeast gene YPL005W): 2.0
The level of expressed mRNA in the presence of chemical substance/The level of expressed mRNA in the absence of chemical substance (yeast gene YPL087W): 4.2
level of expressed mRNA in the presence of chemical substance / level in the absence of chemical substance (yeast gene YPL150W): 1.2
level of expressed mRNA in the presence of chemical substance / level in the absence of chemical substance (yeast gene YPL152W): 1.3
level of expressed mRNA in the presence of chemical substance / level in the absence of chemical substance (yeast gene YPL168W): 1.2
level of expressed mRNA in the presence of chemical substance / level in the absence of chemical substance (yeast gene YPL180W): 1.0
level of expressed mRNA in the presence of chemical substance / level in the absence of chemical substance (yeast gene YPL188W): 1.3
The level of expressed mRNA in the presence of chemical substance/The level of expressed mRNA in the absence of chemical substance (yeast gene YPL196W): 2.4
The level of expressed mRNA in the presence of chemical substance/The level of expressed mRNA in the absence of chemical substance (yeast gene YPL206C): 1.2
level of expressed mRNA in the presence of chemical substance / level in the absence of chemical substance (yeast gene YPL221W): 1.3
The level of expressed mRNA in the presence of chemical substance/The level of expressed mRNA in the absence of chemical substance (yeast gene YPL222W): 1.1
level of expressed mRNA in the presence of chemical substance / level in the absence of chemical substance (yeast gene YPL225W): 1.7
The level of expressed mRNA in the presence of chemical substance/The level of expressed mRNA in the absence of chemical substance (yeast gene YPR023C): 1.2
level of expressed mRNA in the presence of chemical substance / level in the absence of chemical substance (yeast gene YPR049C): 1.1
level of expressed mRNA in the presence of chemical substance / level in the absence of chemical substance (yeast gene YPR146C): 1.0
level of expressed mRNA in the presence of chemical substance / level in the absence of chemical substance (yeast gene YPR148C): 1.6
The level of expressed mRNA in the presence of chemical substance/The level of expressed mRNA in the absence of chemical substance (yeast gene YPR151C): 4.4
level of expressed mRNA in the presence of chemical substance / level in the absence of chemical substance (yeast gene YPR172W): 1.2
